In patent US20090105149A1, “Compounds comprising lpa” (ENKAM PHARMACEUTICALS A/S, priority 2003, published 2009):
Marks after values point to notes of the source that are not given here.

What was measured:
hippocampal neurons [1] = assay: Neurite outgrowth, hippocampal neurons; format: cell-based, rat; conditions: at 0.3 μg/ml
Method: (§1) The cultures were subsequently immunostained for tyrosine hydroxylase. Hippocampal neurons and CGN were plated at a density of 10,000 cells/cm^2 on 8-well permanox chamber slides and incubated for 24 hours in the presence of various concentrations of FGLd. Subsequently the neurons were immunostained for GAP-43. Results from at least five independent experiments for each neuronal culture are shown as percentage ±SEM with the untreated controls set at 100%. *p<0.05, **p<0.01, ***p<0.001 when compared to the controls.
Results from at least four independent experiments are shown as percentage SEM with untreated controls set at 100%. **p<0.01 when compared to the controls.
(§2) Peptide solutions without or with inhibitors of various signal transduction pathways were added to a total volume of 300 μl/cm^2, and the slides were incubated at 37° C. After 24 hours, the neurons were fixed with 4% (v/v) formaldehyde for 20 minutes and thereafter immunostained using primary rabbit antibodies against GAP-43 and Alexa Fluor secondary goat anti-rabbit antibodies. Images of at least 200 neurons for each group in each individual experiment were obtained systematically by using computer assisted fluorescence microscopy as previously described (Rønn et al., 2000 op. cit.). Briefly, a Nikon Diaphot inverted microscope with a Nikon Plan 20× objective (Nikon, Tokyo, Japan) coupled to a video camera (Grundig Electronics, Germany) was used for recordings. The same software package as described above for the dopaminergic neurite outgrowth assay was used to process the recorded images.

[2] = tested on: FGL-induced neurite outgrowth in CGN cultures; assay: Effect of inhibitors of FGFR, MEK and PI3K on FGL-induced neurite outgrowth in CGN; format: cell-based, rat; conditions: Rattus norvegicus, 27 μg/ml FGLd, FGLd-treated control = 100%, read-out: FGLd-induced neurite outgrowth in CGN in presence of inhibitor
Method: CGN cultures were grown for 24 hours at a density of 10,000 cells/cm^2 on 8-well permanox slides in the presence of the FGL peptide and an inhibitor. PD98059 ([…]) was added at concentrations of 12.5, 25 and 50 μM simultaneously with 10 μg/ml FGLd; LY294002 (▴) was added at concentrations of 3.5, 7 and 10 μM simultaneously with 27 μg/ml FGLd. SU5402 (▪) was added in concentrations of 20, 40 and 80 μM simultaneously with 27 μg/ml FGLd. After the treatment cells were fixed and immunostained for GAP-43. Results from at least four independent experiments are shown as percentage ±SEM, with FGLd-treated control cultures set at 100%. The dashed line indicates the average neurite length in cultures without FGLd-treatment. *p<0.05, **p<0.01 when compared to the FGLd-treated controls.
as §2

[3] = tested on: organotypic hippocampal neuronal slice cultures (OHSC); assay: OGD, propidium iodide staining of OHSC; format: cell-based, rat; conditions: control peptide
Source text: In the present study it was investigated the effect of the FGL peptide on synaptic plasticity, neuronal function and vulnerability following oxygen and glucose deprivation (OGD) in organotypic hippocampal neuronal slice cultures (OHSC) from 7-day-old Wistar rats according to method of Stoppini et al. (1991) Neurosci Methods. 37:173-82 and primary cultures of dissociated hippocampal neurons from 1-day-old rats according to method of Maar et al. (1997) J Neurosci Res. 47:163-72. Primary cell cultures were maintained for 11-12 days and OHSC for 12-14 days prior to adding FGLd.
The primary cell cultures and OHSC were exposed to OGD for 10 and 20 minutes. Following OGD, the cultures were again supplied with oxygen and glucose and analysed at 1, 4 or 24 hour time point after introduction of OGD exposure. FGLd (or the control peptide FGLc) was added 24 hr before, immediately, or 1 hr or 24 hr after OGD. When administered prior to OGD, FGLd was removed from the medium when introducing OGD. In some cases, the slice cultures were treated with FGLd only at 4 hr after OGD. In addition, the FGFR inhibitor, SU5402 (25 μM), was added together with FGLd in some of the set-ups.
In hippocampal neuronal cultures, FM 1-43 staining was used to evaluate pre-synaptic function (described above). Cell viability in both primary cell cultures and OHSC was measured using the […] [3-(4,5-dimethylthiazol-2-yl)-2,5-diphenyltetrazolium bromide] assay according to Malich et al, (1997) Toxicology. 124:179-92. In, addition, cell viability in OHSC was measured using propidium iodide (PI) staining according to Laake et al. (1999) Brain Res Brain Res Protoc. 4:173-84.

dopaminergic neurons [4] = assay: Neurite outgrowth, dopaminergic neurons; format: cell-based, rat; conditions: DN E14, 72 h
Method: as §1
After 72 hours of incubation, the neurons were fixed with 4% (v/v) formaldehyde and immunostained using a primary mouse monoclonal antibody against tyrosine hydroxylase and secondary biotinylated sheep anti-mouse antibodies followed by incubation with peroxidase conjugated streptavidin. 98 images for each experimental condition in each individual experiment were automatically recorded using a computerised microscope workstation described by Walmod et al. (2002) Toxicol Appl Pharmacol. 181:1-15. Briefly, the workstation consisted of an Eclipse TE 300 inverted microscope (Nikon, Tokyo, Japan) equipped with a motorised, movable microscope stage (LUDL Electronic Production Ltd, Hawthorne, N.Y., USA), a 10× objective and a 1100 analogue b/w CCD video camera (DFA, Denmark). A software package Prima developed at the Protein Laboratory (Copenhagen University, Denmark) was used to make a stereologically based determination of neurite length according to Rønn et al., (2000) J Neurosci Methods. 100:25-32).

[5] = tested on: cerebellar granule neurons (CGN); assay: Survival of CGN induced to undergo apoptosis by low KCl; conditions: for Neuronal Survival (% of Control): Low K+ (5 mM)
Method: Cerebella granular meurons (CGN) (e and f) from postnatal day 7 rats were grown at a density of 100,000 cells/cm^2 for 7 days on poly-L-lysine coated microtiter plates in the medium containing 40 mM KCl, then the medium was substituted to a 5 mM KCl containing medium supplemented with various concentrations of FGLd.
For the experiments cerebellar tissue was dissected in modified Krebs-Ringer solution kept on ice, and treated as described for the hippocampal neurons above. All cell cultures were incubated at 37° C. in a humidified atmosphere containing 5% CO2.
Primary cultures of CGN were plated at a density of 100,000 cells/cm^2 on poly-L-lysine coated 8-well permanox slides in Neurobasal-A medium (Gibco, BRL) supplemented with 2% (v/v) B27, 0.5% (v/v) glutamax, 100 U/ml penicillin, 100 μg/ml streptomycin and KCl, making the final concentration of KCl in the medium 40 mM. 24 hours after plating, cytosine-β-D-arabinofuranoside (Ara-C; Sigma-Aldrich) was added to a final concentration of 10 μM to avoid proliferation of glial cells, after which the neurons were allowed to differentiate for further six days at 37° C. Apoptotic cell death was induced by washing twice and changing the medium to Basal Medium Eagle (BME; Gibco BRL) supplemented with 1% (v/v) glutamine, 100 U/ml penicillin and 100 μg/ml streptomycin, 3.5 g D-glucose/l and 1% (v/v) sodium pyruvate (Gibco BRL) together with various concentrations of peptide. Thereby the concentration of potassium in the cultures was reduced to 5 mM KCl. Two days after induction of apoptosis, the cells were fixed with 4% formaldehyde and stained with Hoechst 33258 as described for the survival assay employing hippocampal neurons.

hippocampal neurons [6] = assay: Survival of hippocampal neurons exposed to Aβ25-35; format: cell-based, rat; conditions: 50 ng/ml; 20 μM Aβ25-35
Method: For the experiments dissociated hippocampal neurons were isolated from Wistar rat embryos at embryonic day 19 or newborn rats as described by Rønn et al. (1999) Nat. Biotechnol. 17:1000-5.
Briefly, hippocampus was isolated from the brain in ice cold modified Krebs Ringer solution, cleared of blood vessels, roughly homogenised by chopping and then trypsinised. The dissociated cells were washed in the presence of DNAse 1 and soybean trypsin inhibitor.
For the assay neurons were plated at a density of 40,000 cells/cm^2 on 8-well permanox slides coated with 10 μg/ml poly-L-lysine in Neurobasal medium. 15 minutes after plating, Aβ25-35 was added to a final concentration of 20 μM. The Aβ25-35 had prior to plating been dissolved in sterile deionized water to a concentration of 3 mM and incubated at 37° C. for four days according to Pigino et al. (2001) J. Neurosci. 21:834-42. This treatment induces fibrillation of the Aβ-peptide fragment, thereby increasing its neurotoxic activity. The neurons were incubated with Neurobasal medium containing the FGL peptide for 70 hours, fixed with 4% (v/v) formaldehyde, and stained with Hoechst 33258 for 25 minutes as described by Kruman et al. (1997). Images of 1000-1500 neurons were randomly recorded for each group in each experiment using computer assisted fluorescence microscopy as described for the hippocampal neurite outgrowth assay. Nuclei from dead and live neurons were counted using the software package Prima developed at the Protein Laborator, Copenhagen University, and the fraction of live neurons relative to the total number of neurons was estimated.

dopaminergic neurons [7] = assay: Survival of dopaminergic neurons exposed to 6-OHDA; format: cell-based, rat; conditions: 10 ng/ml; 6-OHDA-treated control cells set to 100%
Method: Dopaminergic neurons (DN) (a and b) from day 15 rat embryos grown at a density of 150,000 cells/cm^2 for six days without or with various concentrations of peptide on 24-well cell culture plates coated with poly-D-lysine were exposed to 100 μM 6-OHDA for two hours. Medium was changed and various concentrations of FGLd were added. The neurons were grown for another 24 hours before the cultures they were fixed and immunostained for tyrosine hydroxylase.
Dopaminergic neurons were prepared from Wistar rat embryos at embryonic day 15 (Charles River, Sulzfeld, Germany or Møllegaard, Denmark). A pregnant rat was sacrificed and the uterus was taken out and kept on ice in Hank's balanced salt solution (HBSS; Gibco, BRL). The ventral part of the mesencephalon was dissected from the embryonic brains, homogenised on ice in Gey's balanced salt solution (GBSS; Gibco, BRL) supplemented with 5 g glucose/l (Sigma-Aldrich) and thereafter trypsinised. The dissociated cells were washed in the presence of DNAse 1 and soybean trypsin inhibitor (Sigma-Aldrich).
For the survival assay isolated neurons were seeded at a density of 150,000 cells/cm^2 in 24-well cell culture plates coated with poly-D-lysine as described above. The neurons were left to differentiate for six days without or with various concentrations of the FGL peptide, after which 6-OHDA was added at a concentration of 100 μM for two hours. A stock solution was prepared by dissolving 6-OHDA to a concentration of 10 mM in 0.1% (w/v) sodium metabisulfite in order to prevent oxidation. After two hours with 6-OHDA, the medium was changed to Neurobasal medium with supplements and peptide, and the cell cultures were further incubated for 24 hours, fixed and immunostained for tyrosine hydroxylase. 98 images for each experimental condition in each individual experiment were automatically recorded as described for the dopaminergic neurite outgrowth assay below.

## 11-amino acids fragment of the sequence set forth in SEQ ID NO: 5: SEQ ID NO: 5 (VAENSRGKNVAKG) with two amino acids truncated from the C-terminus; from axonal-associated cell adhesion molecule (Axonal-associated cell adhesion molecule [NCBI: NP_446331]: FGFR binding motif)
Hippocampal neurons [1]
  maximal effect, increase in neurite length of rat hippocampal neurons: 500%

## O=c1cc(N2CCOCC2)oc2c(-c3ccccc3)cccc12 [LY294002]
[2]; 3.5 μM inhibitor
  FGLd-induced neurite outgrowth (% of FGLd-treated control) at 3.5 µM: 90%
[2]; 10 μM inhibitor
  FGLd-induced neurite outgrowth (% of FGLd-treated control) at 10 µM: ~50%

## EVYVVAENMGKSKA [FGLc]
[3]
  PI staining (cell damage) after 10 minutes of OGD: did not affect cell damage induced by OGD

## EVYVVAENQQGKSKA (NCAM Fn III, 2 [Swiss-Prot: P13591]: FGFR binding motif) [FGLm]
Dopaminergic neurons [4]; 10 μg/mL
  Effect on Neurite Length (Percent Increase vs. Control): 15%
Dopaminergic neurons [4]; 50 μg/mL
  Effect on Neurite Length (Percent Increase vs. Control): 23%
Dopaminergic neurons [4]; 250 μg/mL
  Effect on Neurite Length (Percent Increase vs. Control): 28%
[5]; CGN (PND 3-4), 250 μg/mL
  Neuronal Survival (% of Control): 125%* % of Control
[5]; CGN (PND 7-8), 10 μg/mL
  Neuronal Survival (% of Control): 110%* % of Control
[5]; CGN (PND 7-8), 50 μg/mL
  Neuronal Survival (% of Control): 119%* % of Control
[5]; CGN (PND 7-8), 250 μg/mL
  Neuronal Survival (% of Control): 142%* % of Control

## IGF-1: insulin-like growth factor 1
[5]; 50 ng/ml, 5 mM KCl
  rescue of CGN from low KCl-induced cell death: could be rescued

B1: BDNF: brain derived neurotrophic factor (protein, UniProt P23560 19-247, looked up)
Neurotrophic factor BDNF …: APMKEANIRGQGGLAYPGVRTHGTLESVNGPKAGSRGLTSLADTFEHVIEELLDEDQKVRPNEENNKDADLYTSRVMLSSQVPLEPPLLFLLEEYKNYLDAANMSMRVRRHSDPARRGELSVCDSISEWVTAADKKTAVDMSGGTVTVLEKVPVSKGQLKQYFYETKCNPMGYTKEGCRGIDKRHWNSQCRTTQSYVRALTMDSKKRIGWRFIRIDTSCVCTLTIKRGR
Hippocampal neurons [6]
  rescue of hippocampal neurons from Aβ25-35-induced cell loss: could in part be rescued

B2: GDNF: glia derived neurotrophic factor (protein, UniProt P39905 78-211, looked up)
Glial cell line-derived …: SPDKQMAVLPRRERNRQAAAANPENSRGKGRRGQRGKNRGCVLTAIHLNVTDLGLGYETKEELIFRYCSGSCDAAETTYDKILKNLSRNRRLVSDKVGQACCRPIAFDDDLSFLDDNLVYHILRKHSAKRCGCI
Dopaminergic neurons [7]
  survival of dopaminergic neurons treated with 6-OHDA: 150%
